Values quoted from earlier work, collected in paper PMC8352932, “Targeted activity of the small molecule kinase inhibitor Pz-1 towards RET and TRK kinases” (Scientific Reports, 2021).
Values joined by “and” are separate entries in the source; they are usually repeats but may differ in a detail not shown here. Equal values may be shown once.

Tests used:
Conditions in all cases: read-out: cell proliferation IC50
[1] = system: KIF5B-RET Ba/F3 cells
[2] = system: TEL-TRKA Ba/F3 cells
[3] = system: MPRIP-TRKA Ba/F3 cells; parameters: method as in PMID 24162815

Row | SMILES | IC50 [1] | other results
1 | COc1cc2nccc(Oc3ccc(NC(=O)C4(C(=O)Nc5ccc(F)cc5)CC4)cc3)c2cc1OC [cabozantinib] | 341 nM | –
2 | CN1CCN(c2ccc(C(=O)Nc3n[nH]c4ccc(Cc5cc(F)cc(F)c5)cc34)c(NC3CCOCC3)c2)CC1 [entrectinib] | – | IC50 [2]: 2.8 nM
3 | O=C(Nc1cnn2ccc(N3CCC[C@@H]3c3cc(F)ccc3F)nc12)N1CC[C@H](O)C1 [larotrectinib] | – | IC50 [3]: 8 nM

Further lines, with some results ahead:

Row | IC50 [1] | SMILES | other results
4 | 9.7 nM and 16.5 nM | CO[C@]1(C(=O)N[C@@H](C)c2ccc(-n3cc(F)cn3)nc2)CC[C@H](c2nc(C)cc(Nc3cc(C)[nH]n3)n2)CC1 [pralsetinib] | –
5 | 8 nM | COc1ccc(CN2C3CC2CN(c2ccc(-c4cc(OCC(C)(C)O)cn5ncc(C#N)c45)cn2)C3)cn1 [selpercatinib] | –
